Source: US20220009920A1 (GB005, Inc., priority 2020, published 2022)

What was measured:
PRKCE/PKCE = target: T1, PRKCE/PKCE (Homo sapiens, UniProt Q02156); experiment: Large panel kinase profiling; format: biochemical; settings: 1 μM test article, 1 mM ATP
T1 sequence (Q02156 1-737): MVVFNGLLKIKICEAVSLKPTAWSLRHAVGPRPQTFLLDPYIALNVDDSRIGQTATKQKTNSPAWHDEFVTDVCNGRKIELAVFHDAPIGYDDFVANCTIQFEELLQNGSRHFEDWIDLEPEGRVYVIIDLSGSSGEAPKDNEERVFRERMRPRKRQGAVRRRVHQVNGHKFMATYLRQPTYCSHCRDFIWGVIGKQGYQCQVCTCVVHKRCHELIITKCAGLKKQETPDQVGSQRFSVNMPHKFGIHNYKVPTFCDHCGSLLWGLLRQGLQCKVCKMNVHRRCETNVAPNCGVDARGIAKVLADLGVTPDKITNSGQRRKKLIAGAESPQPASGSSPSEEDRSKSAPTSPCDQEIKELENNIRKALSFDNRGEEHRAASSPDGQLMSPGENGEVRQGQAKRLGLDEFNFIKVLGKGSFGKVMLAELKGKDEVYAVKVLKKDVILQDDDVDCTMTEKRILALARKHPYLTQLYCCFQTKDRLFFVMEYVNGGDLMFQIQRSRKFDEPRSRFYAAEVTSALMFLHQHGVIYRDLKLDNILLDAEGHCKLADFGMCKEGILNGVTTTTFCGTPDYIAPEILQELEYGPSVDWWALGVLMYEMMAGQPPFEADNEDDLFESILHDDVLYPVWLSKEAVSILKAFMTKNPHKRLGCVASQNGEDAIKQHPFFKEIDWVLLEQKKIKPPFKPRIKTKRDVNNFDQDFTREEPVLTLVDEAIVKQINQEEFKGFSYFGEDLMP
How it was run: (§1)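 CSox-Sensor fluorescence readout; test article 1 μM, ATP 1 mM, 30° C.; kinetic reads at 1-min intervals, Ex 360/Em 485 nm.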

TAOK2 = target: T2, TAOK2 (Homo sapiens, UniProt Q9UL54); experiment: Large panel kinase profiling; format: biochemical; settings: 1 μM test article, 1 mM ATP
T2 construct: AssayQuant Technologies, Inc. (contract assay)
T2 sequence (Q9UL54 1-1235): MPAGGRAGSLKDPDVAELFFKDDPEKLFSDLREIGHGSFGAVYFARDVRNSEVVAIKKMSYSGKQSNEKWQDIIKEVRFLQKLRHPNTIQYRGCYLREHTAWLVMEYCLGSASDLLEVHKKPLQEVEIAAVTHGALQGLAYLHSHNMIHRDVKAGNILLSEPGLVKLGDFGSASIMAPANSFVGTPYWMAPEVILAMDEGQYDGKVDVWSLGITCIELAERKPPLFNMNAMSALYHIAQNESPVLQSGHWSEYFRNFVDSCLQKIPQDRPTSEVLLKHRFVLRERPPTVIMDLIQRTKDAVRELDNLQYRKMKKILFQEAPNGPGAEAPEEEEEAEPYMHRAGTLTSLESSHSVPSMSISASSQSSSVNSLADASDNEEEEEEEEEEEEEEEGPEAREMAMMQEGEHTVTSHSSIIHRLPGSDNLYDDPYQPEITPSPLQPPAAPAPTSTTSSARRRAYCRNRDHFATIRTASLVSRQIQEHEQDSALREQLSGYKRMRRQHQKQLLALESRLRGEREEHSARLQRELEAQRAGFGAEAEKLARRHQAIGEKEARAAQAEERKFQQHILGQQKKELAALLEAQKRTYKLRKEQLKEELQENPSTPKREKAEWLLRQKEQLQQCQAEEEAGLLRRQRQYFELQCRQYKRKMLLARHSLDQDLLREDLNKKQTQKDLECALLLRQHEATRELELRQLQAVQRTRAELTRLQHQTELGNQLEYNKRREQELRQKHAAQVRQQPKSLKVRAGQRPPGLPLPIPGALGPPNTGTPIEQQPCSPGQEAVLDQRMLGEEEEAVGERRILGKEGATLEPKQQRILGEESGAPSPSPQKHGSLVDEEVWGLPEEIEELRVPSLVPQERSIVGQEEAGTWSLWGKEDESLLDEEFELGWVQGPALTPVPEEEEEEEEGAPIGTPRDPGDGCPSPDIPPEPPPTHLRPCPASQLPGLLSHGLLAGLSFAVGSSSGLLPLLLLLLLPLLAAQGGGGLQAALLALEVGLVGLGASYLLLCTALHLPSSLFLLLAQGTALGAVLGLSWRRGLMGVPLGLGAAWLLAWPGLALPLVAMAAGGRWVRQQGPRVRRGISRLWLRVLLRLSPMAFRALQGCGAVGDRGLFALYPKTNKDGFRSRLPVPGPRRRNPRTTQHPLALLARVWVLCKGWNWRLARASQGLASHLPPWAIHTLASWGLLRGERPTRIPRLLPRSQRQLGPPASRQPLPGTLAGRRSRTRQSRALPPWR
How it was run: as §1

SMILES | inhibition at 1 µM (PRKCE/PKCE) | inhibition at 1 µM (TAOK2)
C=CC(=O)N1CCCC(c2c(F)cc(C(N)=O)c3[nH]c4c(c23)CCCCC4)C1 (single isomer, unassigned) [Compound 5-6] | -3.2% | -14.5%
C=CC(=O)N1CCC[C@@H](c2c(F)cc(C(N)=O)c3[nH]c4c(c23)CCC4)C1 [Compound 10-2, (S)-8-(1-acryloylpiperidin-3-yl)-7-fluoro-1,2,3,4-tetrahydrocyclo-penta[b]indole-5-carboxamide] | -3.5% | 11.4%
C=CC(=O)N1CCC[C@@H](c2c(F)cc(C(N)=O)c3[nH]c4c(c23)CC2(CC4)CC2)C1 [Compound 6-2, (S)-5-(1-acryloylpiperidin-3-yl)-6-fluoro-1,2,4,9-tetrahydrospiro[carbazole-3,1′-cyclopropane]-8-carboxamide] | 0% | -24.8%
